The values below come from PMC5703966, “Systemic clearance and brain distribution of carbazole-based cyanine compounds as Alzheimer’s disease drug candidates” (Scientific Reports, 2017).

SMILES strings stand for the structures. Read-outs that look alike come from different tables or passages of the source.

Data set [1] can be described thus: Plasma binding by RED device. For all read-outs here: tested at 0.4 µM. In kind it is in vitro ADME, human. The conditions noted are these: for plasma binding: human; for f u,plasma %: human plasma, RED device, 4 h, 37 °C. The method, then: Nonspecific binding in plasma (f u, plasma), microsomes (f u, mic) and hepatocyte (f u, hep) were determined using the method seen in supplemental information (Supplemental Methods). […]
All validation compounds were incubated at 37 °C over 4 h, and in triplicate. For […]
plasma stability, 10 mM DMSO solutions of SLM and SLOH were diluted to 40 µM (10% DMSO). Plasma […]
shaking water bath (60 oscillations/min approx.). The assay was started by addition of 6 µL aliquots to […]
the plasma (final DMSO incubation concentration 0.1%). […]
(§1) MS/MS. Natural logarithm of peak area ratios (compound peak area normalized by IS peak area) were plotted against time and half-life calculated. […]
(§2) placed into the sample chamber (indicated by the red ring) with 400 µL of PBS into the adjacent chamber.
The plate was sealed with a self-adhesive lid and incubated at 37 °C on an orbital shaker (1.5 g approx.) for 4 h. Aliquots (100 µL) were removed from each side of the insert, and analyzed after protein precipitation using 4 folds acetonitrile (ACN) containing berberine chloride as internal standard (IS) by LC-MS/MS (Analytical me thod seen below). The experimental procedure outlined in the Thermo Scientific RED device systems brochure was adopted in the present study . […]

The subject of data set [2] is human hepatocytes. As to the kind of experiment: Hepatocyte stability. In kind it is in vitro ADME. Conditions: well-stirred model. The method, then:
as §1, §2
The plate was sealed with a self-adhesive lid and incubated at 37 °C on an orbital shaker (1.5 g approx.) for 4 h. Aliquots (100 µL) were removed from each side of the insert, and analyzed after protein precipitation using 4 folds acetonitrile (ACN) containing berberine chloride as internal standard (IS) by LC-MS/MS (Analytical me thod seen below). The experimental procedure outlined in the Thermo Scientific RED device systems brochure was adopted in the present study . The several positive controls […]
In vitro stability in liver microsomes and hepatocytes
Half-life (t1/2) of SLM or SLOH in liver microsomes was determined in duplicate. In phase I reaction, […]
buffer (pH 7.4) including 81 mM Na2HPO4 and 19 mM NaH2PO4 ) at 37 °C, the reaction mixture was prewarmed at 37 °C for 2 minutes before adding NADPH (1.0 mM). In phase II reaction, the compound […]
5 mM MgCl2, 10 μg/mL alamethicin, and 2% (w/v) BSA. […]
reactions were initiated with the addition of UDPGA (5.0 mM). […]

Data set [3] can be described thus: Systemic clearance and brain distribution in WT and 3 × Tg-AD mice (8 months). Conditions: mouse; for Kp: brain interstitial fluid (unbound) versus plasma (unbound), read-out: K puu,brain; for clearance / Vd / half-life / MRT inf: plasma; for Vd: read-out: Vdss; for MRT inf: read-out: MRT 0−∞. In kind it is in vivo, mouse. The method, then: (§3) The transgenic (Tg) AD mice (B6; 129-Psen1 ^tm1Mpm Tg (APPSwe, tauP301L) 1Lfa/Mmjax) and the corresponding wild-type (WT) (B6129SF2/J) mice was obtained from the Jackson Laboratory (Bar Harbor, Maine, USA), and maintained by the Animal Facility of Faculty of Health Sciences in University of Macau. Either 27 WT or AD mice (8 months) were randomly separated into 9 groups with 3 mice at each time point. Blood and brain were collected at time points 0.083, 0.167, 0.25, 0.5, 1, 2, 4, 8 and 16 hours after i.v. dosing (1 mg/kg). Mice were euthanized by isoflurane followed by cervical dislocation. All the plasma, urine, bile and brain samples were stored at −70 °C for subsequent analysis. The analytical methods for systemic and brain PK parameters were shown in supplemental information (Supplemental Methods).
(§4) Parameters in animals were determined using non-compartmental analysis. […] Systemic Cl p was calculated as the i.v. dose divided by AUC0−∞ ^iv. The terminal rate constant (K el) was calculated by a linear regression of the log-linear concentration-time curve, and the terminal elimination t 1/2 was calculated as 0.693 divided by K el. Mean residence time from t = 0 to infinity (MRT 0−∞) was calculated as AUMC 0−∞ divided by AUC 0−∞. Apparent steady-state distribution volume (Vd ss) was determined as Cl p multiplied by MRT 0−∞. […] The Cl bile was derived as the amount of (in milligrams) of SLM or SLOH in the bile over the 24-hour interval postdose/AUC0-24h. The influx clearance into brain (K in) was calculated by using the amount of drug in the brain (homogenate) at time t (A, brain (t)) (corrected for the amount of drug remaining in the cerebral vasculature) divided by plasma exposure up to this time point (AUC, plasma (0 − t)). The C u,brain was calculated by A brain (homogenate, ng/g brain) divided by V u,brain (mL/g brain). The unbound ISF to plasma ratio (K puu,brain) was calculated by unbound AUC 0−t of ISF (ng/mL × min) divided by unbound AUC 0–t (ng/mL × min) of plasma.

The subject of data set [4] is WT and 3 × Tg-AD mice. The data set is described as above. In kind it is in vivo, mouse. The conditions noted are these: for K in: 1 mg/kg i.v.; for K puu,brain in AD mice relative to WT mice: higher in AD mice. The method, then:
as §3, §4

For data set [5], the system named is Aβ. Also on record: method as in PMID 22086555. The conditions noted are these: cited from earlier work.
A short description of data set [6]: in vitro. Conditions: human, Caco-2.
Data set [7] concerns the target P-gp (Homo sapiens, UniProt P08183). As to the kind of experiment: Efflux transporter identification in Caco-2 cell with P-gp specific inhibitors. Conditions: efflux ratio reduced by PSC833 and verapamil, concentration-dependent. A general note: Passage across Caco-2 layers is used to estimate intestinal permeability.
Setting [8] is: 3×Tg-AD (B6;129-Psen1tm1Mpm Tg(APPSwe,tauP301L)1Lfa/Mmjax), iv, 1 mg/kg, AD mice 8 months, 1 mg/kg i.v.
Setting [9] is: 3×Tg-AD (B6;129-Psen1tm1Mpm Tg(APPSwe,tauP301L)1Lfa/Mmjax), iv, AD mice 8 months, 1 mg/kg i.v., read-out: Cl p (converted).
Setting [10] is: 3×Tg-AD (B6;129-Psen1tm1Mpm Tg(APPSwe,tauP301L)1Lfa/Mmjax), iv, AD mice 8 months, 1 mg/kg i.v.
The mark [11] stands for this setting: B6129SF2/J (WT) and 3×Tg-AD, intravenous, 1 mg/kg, WT and AD mice (8 months), no significant difference, read-out: plasma clearance (converted).
Setting [12] is: B6129SF2/J (wild-type), iv, 1 mg/kg, WT mice 8 months, 1 mg/kg i.v.
[13] abbreviates: B6129SF2/J (wild-type), iv, WT mice 8 months, 1 mg/kg i.v.
Setting [14] is: B6129SF2/J (wild-type), iv, WT mice 8 months, 1 mg/kg i.v., read-out: Cl p (converted).
Where [15] appears, read: iv, AD mice 8 months, 1 mg/kg i.v.

Chain of P-gp (P08183 whole entry): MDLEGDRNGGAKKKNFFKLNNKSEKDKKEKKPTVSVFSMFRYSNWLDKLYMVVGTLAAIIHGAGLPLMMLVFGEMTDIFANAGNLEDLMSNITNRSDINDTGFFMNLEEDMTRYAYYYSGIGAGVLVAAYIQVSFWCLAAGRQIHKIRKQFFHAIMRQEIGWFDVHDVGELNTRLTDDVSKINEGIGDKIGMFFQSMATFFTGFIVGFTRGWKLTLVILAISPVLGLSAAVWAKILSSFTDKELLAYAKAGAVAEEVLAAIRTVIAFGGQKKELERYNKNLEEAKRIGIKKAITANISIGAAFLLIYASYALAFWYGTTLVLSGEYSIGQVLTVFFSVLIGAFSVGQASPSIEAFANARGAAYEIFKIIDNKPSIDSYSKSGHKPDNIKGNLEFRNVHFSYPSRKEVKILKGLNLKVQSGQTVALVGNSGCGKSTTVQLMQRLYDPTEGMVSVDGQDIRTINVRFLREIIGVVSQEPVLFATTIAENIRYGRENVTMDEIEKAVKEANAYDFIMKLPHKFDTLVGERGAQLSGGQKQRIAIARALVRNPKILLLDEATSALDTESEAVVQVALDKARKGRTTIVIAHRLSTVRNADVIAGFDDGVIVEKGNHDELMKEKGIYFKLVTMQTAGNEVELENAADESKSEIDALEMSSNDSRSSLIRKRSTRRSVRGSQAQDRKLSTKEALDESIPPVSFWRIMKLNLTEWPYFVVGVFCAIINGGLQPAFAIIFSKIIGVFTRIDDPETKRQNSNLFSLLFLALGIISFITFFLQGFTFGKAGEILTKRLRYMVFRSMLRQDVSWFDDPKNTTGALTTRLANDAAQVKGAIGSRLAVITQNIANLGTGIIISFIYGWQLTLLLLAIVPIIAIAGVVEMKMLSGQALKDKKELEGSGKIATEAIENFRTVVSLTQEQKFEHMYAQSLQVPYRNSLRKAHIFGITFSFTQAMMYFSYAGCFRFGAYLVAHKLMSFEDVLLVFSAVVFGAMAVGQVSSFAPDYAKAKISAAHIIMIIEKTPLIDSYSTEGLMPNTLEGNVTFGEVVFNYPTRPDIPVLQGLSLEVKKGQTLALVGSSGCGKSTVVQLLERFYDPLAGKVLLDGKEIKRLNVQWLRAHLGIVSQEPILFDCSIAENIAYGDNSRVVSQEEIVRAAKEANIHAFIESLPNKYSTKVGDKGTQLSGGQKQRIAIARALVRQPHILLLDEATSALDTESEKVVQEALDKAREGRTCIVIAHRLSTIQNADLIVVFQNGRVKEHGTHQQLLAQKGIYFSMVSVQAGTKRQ

Usually half-life stands for how long it takes for the measured level to halve. A low value points to rapid decline. What is called Papp A→B is the apparent permeability from the apical to the basolateral side of a cell layer. A higher Papp A→B goes with fast passage. By efflux ratio is commonly meant the permeability from basolateral to apical divided by that in the opposite direction, in the common usage. In the case of `COCCOCCn1c2ccccc2c2cc(/C=C/c3cc[n+](C)c4ccccc34)ccc21.[I-]` [SLM, (E)-4-(2-(9-(2-(2-methoxyethoxy)ethyl)-9H-carbazol-3-yl)-vinyl)-1-methyl-quinolin-1-iumiodide], in data set [1], the plasma binding was greater than 95%. In addition, the “f u,plasma %” value in data set [1] was 0.100 ± 0.0100%. The “Hepatocyte scaled Cl hep” value in data set [2] was 0.0500 ± 0.0100 L/h/kg. The results for the Kp in data set [3] (setting [8]) and in data set [3] (setting [12]) were 11 and 2.5 ± 0.44, respectively. Also, the clearance in data set [3] (setting [9]) was 13.2 mL/min/kg; in data set [3] (setting [11]) it was roughly 11.7 mL/min/kg; in data set [3] (setting [14]) it was 11.3 mL/min/kg. In addition, the Vd in data set [3] (setting [10]) worked out at 1.3 ± 0.32 L/kg; in data set [3] (setting [13]), 1.3 ± 0.58 L/kg. The half-life in data set [3] (setting [13]) is 360 ± 60 min; in data set [3] (setting [15]), 210 ± 60 min. Moreover, the MRT inf in data set [3] (setting [13]) was determined as 1.5 ± 0.18 h; in data set [3] (setting [15]) it was 1.7 ± 0.55 h. Further, the “K in” value in data set [4] (AD mice 8 months) is 4.10 ± 1.10 μL/min per g brain; in data set [4] (WT mice 8 months), 1.70 ± 0.630 μL/min per g brain. Also, in data set [4], the “K puu,brain in AD mice relative to WT mice” value is 4 fold. The “reduction of Aβ fibrillogenesis in vitro” value in data set [5] is “reduce Aβ fibrillogenesis significantly”. The compound also returned a Papp A→B at 1 μM in data set [6] of 2.5 ×10⁻⁶ cm/s. Besides, in data set [6], the efflux ratio at 1 μM is 34. The P-gp substrate identification result in data set [7] is “substrates”.
On to `COCCOCCn1c2ccccc2c2cc(/C=C/c3cc[n+](CCO)c4ccccc34)ccc21` [SLOH, (E)-1-(2-hydroxyethyl)-4-(2-(9-(2-(2-metho-xyethoxy)-ethyl)-9H-carbazol-3-yl)vinyl) quinolin-1-ium chloride], for which the plasma binding in data set [1] is greater than 95%. In data set [1], the “f u,plasma %” value worked out at 0.170 ± 0.0400%. Further, in data set [2], the “Hepatocyte scaled Cl hep” value was determined as 0.0600 ± 0.0100 L/h/kg. The Kp in data set [3] (setting [8]) was found to be 8.1; in data set [3] (setting [12]), 0.98 ± 0.22. The clearance in data set [3] (setting [9]) is 10 mL/min/kg; in data set [3] (setting [11]) it was roughly 10 mL/min/kg; in data set [3] (setting [14]) it was 7.5 mL/min/kg. The Vd in data set [3] (setting [10]) came out at 2.3 ± 0.71 L/kg; in data set [3] (setting [13]), 2.1 ± 0.45 L/kg. Moreover, the half-life was 258 ± 66 min in data set [3] (setting [13]) and 288 ± 72 min in data set [3] (setting [15]). The MRT inf in data set [3] (setting [13]) was 3 ± 1.2 h; in data set [3] (setting [15]) it was 2.9 ± 0.38 h. The “K in” value in data set [4] (AD mice 8 months) came out at 4.00 ± 0.500 μL/min per g brain; in data set [4] (WT mice 8 months), 1.10 ± 0.100 μL/min per g brain. The “K puu,brain in AD mice relative to WT mice” value in data set [4] stood at 8 fold. In addition, in data set [5], the “reduction of Aβ fibrillogenesis in vitro” value is given as “reduce Aβ fibrillogenesis significantly”. Besides, the Papp A→B at 1 μM in data set [6] came to 2.7 ×10⁻⁶ cm/s. Besides, the efflux ratio at 1 μM in data set [6] came to 9. In data set [7], the P-gp substrate identification result was “substrates”.
